Results: ChEMBL document CHEMBL1201862, “PubChem BioAssay data set” (2004)
Calls of active or inactive are those of the source.

Tests used:
[1] = target: T1, E3 ubiquitin-protein ligase XIAP (Homo sapiens, UniProt P98170); experiment: Counter Screen using XIAP-Bir3 for Chemical Antagonists of Bir1/2 domains of IAP-family anti-apoptotic proteins. [Related pubchem assays (depositor defined):AID1018, AID1449, AID1514, AID1638, AID1749, AID1750, AID488957, AID488963]
[2] = target: T1, E3 ubiquitin-protein ligase XIAP; experiment: small molecules displacing peptide from XIAP – biochemical, IAP family, fluorescence polarization (AID 1018); assay type: functional
[3] = target: G-protein coupled receptor 55 (Homo sapiens, UniProt Q9Y2T6); experiment: inhibition of LPI-stimulated GPR55 beta-arrestin translocation – imaging, U2OS, beta-arrestin-GFP, LPI agonist, primary screen (AID 2013); assay type: functional;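 note: antagonist potency measured as reduced agonist-driven arrestin aggregation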
Sequence of G-protein coupled receptor 55 (Q9Y2T6 whole entry): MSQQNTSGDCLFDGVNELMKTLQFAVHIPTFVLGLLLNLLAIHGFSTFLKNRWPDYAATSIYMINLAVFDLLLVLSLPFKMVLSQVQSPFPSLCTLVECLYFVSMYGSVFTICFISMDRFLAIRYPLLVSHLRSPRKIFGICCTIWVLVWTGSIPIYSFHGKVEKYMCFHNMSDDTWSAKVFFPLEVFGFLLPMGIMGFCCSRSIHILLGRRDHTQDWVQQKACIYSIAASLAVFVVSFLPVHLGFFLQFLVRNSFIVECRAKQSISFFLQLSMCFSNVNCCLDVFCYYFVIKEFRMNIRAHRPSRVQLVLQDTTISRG

[4] = NIH3T3 cell viability loss – ATP luminescence, mouse fibroblasts, counter-screen, dose response (AID 2010); assay type: functional, cell-based;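 note: cells exposed to compound for about 90 hours before reading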
[5] = Trypanosoma cruzi growth suppression in host cells – NIH3T3 host cells, beta-gal luminescence, confirmation (AID 2044); assay type: functional, cell-based;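 note: intracellular parasites grown in NIH/3T3 mouse fibroblasts as host cells; luminescent beta-galactosidase reporter signal from transgenic T. cruzi replicating inside host cells; inhibitors lower the luminescence signal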
[6] = blockers of HIV-1 ZM109 envelope-driven cell-cell fusion – HeLa effector, CEM target cells, luciferase, cherry-pick, dose response (AID 652058); assay type: functional, cell-based;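 note: luciferase signal from HIV-1 Env mediated cell-cell fusion of effector and target cells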
[7] = HIV-1 AD8 envelope cell-cell fusion blockers – cherry-pick, dose response (AID 652062); assay type: functional, cell-based;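 note: luciferase signal from cell-cell fusion driven by HIV-1 clade B AD8 Env; potency is for inhibitors of fusion seen as a drop in luminescence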
HEK293 [8] = experiment: cells; settings: Homo sapiens
[9] = off-target signal loss in HeLa-CEM21 co-culture – HeLa F-luc CTL cells, cherry-picked, counter-screen for HIV-1 Env fusion inhibitor project, dose response (AID 652040); assay type: functional, cell-based;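 note: potency for signal decrease marking cytotoxic or nonspecific inhibition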
HEK293 [10] = experiment: cells; settings: Homo sapiens; remark: listed apart in the source
[11] = blockers of HIV-1 envelope-mediated cell-cell fusion – cherry-pick, dose response (AID 652057); assay type: functional, cell-based
[12] = target: T2, Mitochondrial peptide methionine sulfoxide reductase (Bos taurus, UniProt P54149); assay type: functional;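 note: absorbance read-out, biochemical high-throughput dose-response screen for MsrA inhibitors, confirmatory; recombinant bovine MsrA coupled to E. coli TrxB with NADPH and selenocystamine; potency is for inhibitors of MsrA activity on DMSO substrate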
T2 sequence (P54149 whole entry): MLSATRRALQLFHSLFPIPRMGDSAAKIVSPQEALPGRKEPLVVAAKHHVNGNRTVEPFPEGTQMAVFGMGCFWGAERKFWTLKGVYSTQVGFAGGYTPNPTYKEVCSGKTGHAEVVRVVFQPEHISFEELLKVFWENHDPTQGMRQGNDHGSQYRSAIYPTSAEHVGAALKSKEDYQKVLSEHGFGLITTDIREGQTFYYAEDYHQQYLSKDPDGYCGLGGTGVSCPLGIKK

[13] = Counterscreen for antagonists of the orexin 1 receptor (OX1R; HCRTR1): Fluorescence-based cell-based high throughput dose response assay to identify antagonists of the parental CHO cell line. [Related pubchem assays (depositor defined):AID434989, AID435008, AID463079, AID485270, AID492963, AID492964, AID492965, AID493232, AID504699, AID504701]; assay type: functional
[14] = target: T3, Orexin/Hypocretin receptor type 1 (Homo sapiens, UniProt O43613); experiment: Fluorescence-based cell-based high throughput dose response assay for antagonists of the orexin 1 receptor (OX1R; HCRTR1). [Related pubchem assays (depositor defined):AID434989, AID435008, AID463079, AID485270, AID492963, AID492964, AID492965, AID493232, AID504717, AID504718]; assay type: functional
T3 sequence (O43613 whole entry): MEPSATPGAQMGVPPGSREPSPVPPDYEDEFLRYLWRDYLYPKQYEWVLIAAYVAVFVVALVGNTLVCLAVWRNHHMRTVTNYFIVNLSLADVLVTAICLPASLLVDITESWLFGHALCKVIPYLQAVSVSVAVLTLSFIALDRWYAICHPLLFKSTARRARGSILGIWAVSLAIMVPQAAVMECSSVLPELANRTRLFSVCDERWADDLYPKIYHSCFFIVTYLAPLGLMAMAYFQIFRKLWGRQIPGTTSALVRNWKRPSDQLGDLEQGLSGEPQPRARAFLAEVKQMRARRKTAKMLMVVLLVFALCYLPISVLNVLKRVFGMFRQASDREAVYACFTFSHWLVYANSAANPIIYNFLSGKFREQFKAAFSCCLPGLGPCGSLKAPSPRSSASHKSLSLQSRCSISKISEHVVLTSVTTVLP

CHO-K1 = experiment: Counterscreen for antagonists of the orexin 1 receptor (OX1R; HCRTR1): Homogeneous time resolved fluorescence (HTRF)-based cell-based dose response assay to identify antagonists of the parental CHO-K1 cell line. [Related pubchem assays (depositor defined):AID434989, AID435008, AID463079, AID485270, AID492963, AID492964, AID492965, AID493232, AID504699, AID504701]; assay type: functional; settings: Cricetulus griseus;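 note: potency for inhibition of ATP-stimulated IP1 production as antagonists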
[15] = target: T3, Orexin/Hypocretin receptor type 1; experiment: Homogeneous Time Resolved Fluorescence (HTRF)-based cell-based high throughput dose response assay for antagonists of the orexin 1 receptor (OX1R; HCRTR1). [Related pubchem assays (depositor defined):AID434989, AID435008, AID463079, AID485270, AID492963, AID492964, AID492965, AID493232, AID504717, AID504718]; assay type: functional
[16] = target: 26S proteasome non-ATPase regulatory subunit 14 (Homo sapiens, UniProt O00487); experiment: inhibition of proteasome subunit RPN11 – biochemical, fluorescence polarization, uHTS hits, confirmation (AID 602368); assay type: functional
Sequence of 26S proteasome non-ATPase regulatory subunit 14 (O00487 whole entry): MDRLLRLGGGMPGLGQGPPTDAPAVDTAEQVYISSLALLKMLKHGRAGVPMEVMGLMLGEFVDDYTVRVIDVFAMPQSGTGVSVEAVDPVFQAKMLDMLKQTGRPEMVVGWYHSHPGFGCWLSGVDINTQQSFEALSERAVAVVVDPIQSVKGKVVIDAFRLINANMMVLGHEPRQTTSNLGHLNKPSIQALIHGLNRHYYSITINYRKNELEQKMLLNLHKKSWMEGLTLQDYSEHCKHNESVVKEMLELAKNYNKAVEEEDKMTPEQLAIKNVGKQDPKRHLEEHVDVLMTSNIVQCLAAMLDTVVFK

Prothrombin = Prothrombin (Bos taurus, UniProt P00735); experiment: thrombin protease inhibitors – biochemical, fluorescence polarization, uHTS hits, dose response (AID 602369); assay type: functional
[17] = target: 72 kDa type IV collagenase (Homo sapiens, UniProt P08253); experiment: Dose Response validation of uHTS RPN11 inhibitor hits using a MMP-2 Fluorescence assay.; assay type: functional
Sequence of 72 kDa type IV collagenase (P08253 whole entry, the tested form may be a part): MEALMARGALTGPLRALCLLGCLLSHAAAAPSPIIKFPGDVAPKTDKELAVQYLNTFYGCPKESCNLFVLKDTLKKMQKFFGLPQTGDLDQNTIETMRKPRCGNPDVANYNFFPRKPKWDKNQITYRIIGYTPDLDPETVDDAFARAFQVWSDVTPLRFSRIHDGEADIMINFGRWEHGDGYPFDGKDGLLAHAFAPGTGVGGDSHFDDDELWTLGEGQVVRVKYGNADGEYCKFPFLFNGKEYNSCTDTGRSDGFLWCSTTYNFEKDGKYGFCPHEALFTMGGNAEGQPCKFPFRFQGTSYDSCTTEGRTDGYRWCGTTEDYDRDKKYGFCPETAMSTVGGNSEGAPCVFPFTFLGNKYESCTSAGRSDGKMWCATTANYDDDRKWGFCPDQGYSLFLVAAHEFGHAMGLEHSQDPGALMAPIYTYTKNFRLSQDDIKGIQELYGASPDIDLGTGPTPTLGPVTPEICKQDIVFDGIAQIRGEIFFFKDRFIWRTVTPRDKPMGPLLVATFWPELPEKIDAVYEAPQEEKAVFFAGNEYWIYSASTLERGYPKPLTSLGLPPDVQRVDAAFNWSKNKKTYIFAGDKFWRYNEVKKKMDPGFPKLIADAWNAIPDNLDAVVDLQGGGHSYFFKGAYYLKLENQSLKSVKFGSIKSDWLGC

CHO = CHO cell viability loss, potency – luminescence, cytotoxicity control for TLR9-MyD88 binding inhibitor project, dose response (AID 588339); assay type: functional, cell-based, hamster; settings: Cricetulus griseus;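 note: CHO cells stably coexpressing TLR9 and MyD88 fusions from primary screen; compound exposure lasted 48 hours before viability readout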
Beta Lactamase = Beta Lactamase (Pseudomonas aeruginosa, UniProt Q932Y6); experiment: BLA reporter interference, concentration series – BLA reporter cells, FRET fluorescence, artefact control for TLR9-MyD88 binding inhibitor project, dose response (AID 588341); assay type: cell-based;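 note: cell based assay in CHO-K1 cells stably expressing beta-lactamase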
Sequence of Beta Lactamase (Q932Y6 whole entry): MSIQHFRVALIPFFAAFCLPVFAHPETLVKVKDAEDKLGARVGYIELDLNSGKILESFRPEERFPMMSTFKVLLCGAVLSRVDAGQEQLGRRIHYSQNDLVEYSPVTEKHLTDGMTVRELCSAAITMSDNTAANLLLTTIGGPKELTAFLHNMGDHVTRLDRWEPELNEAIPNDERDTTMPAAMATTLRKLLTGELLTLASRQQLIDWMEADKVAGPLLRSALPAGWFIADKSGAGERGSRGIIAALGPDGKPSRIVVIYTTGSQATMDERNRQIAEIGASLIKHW

[18] = reduction of Shn3 3'UTR-driven luciferase in osteoblasts – cell-based, Clone20 osteoblasts, firefly luciferase, cherry-picked, dose response (AID 624132); assay type: functional;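 note: firefly luciferase luminescence from reporter carrying the Shn3 3'UTR in osteoblasts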
[19] = loss of viability in HepG2 cells – cell-based, CellTiter-Glo, cherry-picked, cytotoxicity control for Shn3 inhibitor project, dose response (AID 624134); assay type: functional
[20] = non-specific 3'UTR reporter inhibition in Clone20-Shn3RL – cell-based, Renilla luciferase, cherry-picked, counter-screen for Shn3 inhibitor project, dose response (AID 624133); assay type: functional
[21] = microbe, parasite or virus in culture; assay type: functional; settings: Mycobacterium tuberculosis
Cytochrome P450 2D6 = Cytochrome P450 2D6 (Homo sapiens, UniProt P10635);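 note: CYP2D6 member of a cytochrome P450 panel assay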
Sequence of Cytochrome P450 2D6 (P10635 whole entry): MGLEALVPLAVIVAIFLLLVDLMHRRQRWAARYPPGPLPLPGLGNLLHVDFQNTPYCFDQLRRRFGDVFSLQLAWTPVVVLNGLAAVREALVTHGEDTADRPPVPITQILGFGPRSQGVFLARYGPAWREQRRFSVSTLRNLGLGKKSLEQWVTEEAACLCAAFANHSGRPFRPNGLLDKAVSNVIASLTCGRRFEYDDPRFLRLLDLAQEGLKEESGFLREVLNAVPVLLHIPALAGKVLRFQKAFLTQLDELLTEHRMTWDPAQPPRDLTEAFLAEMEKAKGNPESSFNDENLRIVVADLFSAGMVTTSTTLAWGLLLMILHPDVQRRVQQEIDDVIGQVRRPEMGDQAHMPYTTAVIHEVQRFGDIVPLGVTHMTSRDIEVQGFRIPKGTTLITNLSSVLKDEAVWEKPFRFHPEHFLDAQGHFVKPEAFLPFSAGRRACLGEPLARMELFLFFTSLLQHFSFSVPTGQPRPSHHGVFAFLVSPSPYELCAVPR

Vero = experiment: cells; assay type: functional; settings: Chlorocebus sabaeus
Cytochrome P450 2C9 = Cytochrome P450 2C9 (Homo sapiens, UniProt P11712)
Sequence of Cytochrome P450 2C9 (P11712 whole entry): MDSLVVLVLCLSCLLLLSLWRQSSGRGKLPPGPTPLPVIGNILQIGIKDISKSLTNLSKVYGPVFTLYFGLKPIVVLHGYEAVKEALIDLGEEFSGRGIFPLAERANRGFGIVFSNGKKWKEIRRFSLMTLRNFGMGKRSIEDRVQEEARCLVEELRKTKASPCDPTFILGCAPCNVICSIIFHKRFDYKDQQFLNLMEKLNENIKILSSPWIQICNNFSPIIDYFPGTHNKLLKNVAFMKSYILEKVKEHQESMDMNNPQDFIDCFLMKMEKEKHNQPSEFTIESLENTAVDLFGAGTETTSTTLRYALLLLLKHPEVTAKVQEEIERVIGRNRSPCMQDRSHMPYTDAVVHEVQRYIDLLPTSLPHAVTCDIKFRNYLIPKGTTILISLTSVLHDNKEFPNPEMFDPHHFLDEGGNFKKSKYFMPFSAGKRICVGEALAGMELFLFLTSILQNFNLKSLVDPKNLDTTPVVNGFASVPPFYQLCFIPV

Cytochrome P450 1A2 = target: T4, Cytochrome P450 1A2 (Homo sapiens, UniProt P05177);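 note: PubChem cytochrome P450 panel assay, CYP1A2 panel member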
T4 sequence (P05177 whole entry): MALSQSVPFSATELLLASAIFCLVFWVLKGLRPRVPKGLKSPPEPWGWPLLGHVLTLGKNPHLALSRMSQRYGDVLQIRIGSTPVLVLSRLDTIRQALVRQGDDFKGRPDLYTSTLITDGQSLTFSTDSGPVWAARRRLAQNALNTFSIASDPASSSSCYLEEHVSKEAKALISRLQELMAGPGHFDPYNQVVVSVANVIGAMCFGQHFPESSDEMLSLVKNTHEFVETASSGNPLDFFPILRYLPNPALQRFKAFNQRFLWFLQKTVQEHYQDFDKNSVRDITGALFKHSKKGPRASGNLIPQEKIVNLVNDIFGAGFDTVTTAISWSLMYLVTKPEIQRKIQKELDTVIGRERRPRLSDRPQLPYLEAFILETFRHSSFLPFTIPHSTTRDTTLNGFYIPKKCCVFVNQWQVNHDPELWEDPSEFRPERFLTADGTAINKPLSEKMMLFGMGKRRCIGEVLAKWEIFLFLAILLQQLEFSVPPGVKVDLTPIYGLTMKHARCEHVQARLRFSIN

[22] = Luminescence Cell-Based Dose Retest to Confirm Inhibitors of Cancer Stem Cells. [Related pubchem assays (depositor defined):AID2717, AID2721]; assay type: functional; settings: Homo sapiens
[23] = target: T5, Tyrosine-protein phosphatase non-receptor type 7 (Homo sapiens, UniProt P35236); experiment: redox-active compounds inhibiting HePTP phosphatase – biochemical, fluorescence, mechanism study (AID 2068); assay type: functional
T5 sequence (P35236 whole entry): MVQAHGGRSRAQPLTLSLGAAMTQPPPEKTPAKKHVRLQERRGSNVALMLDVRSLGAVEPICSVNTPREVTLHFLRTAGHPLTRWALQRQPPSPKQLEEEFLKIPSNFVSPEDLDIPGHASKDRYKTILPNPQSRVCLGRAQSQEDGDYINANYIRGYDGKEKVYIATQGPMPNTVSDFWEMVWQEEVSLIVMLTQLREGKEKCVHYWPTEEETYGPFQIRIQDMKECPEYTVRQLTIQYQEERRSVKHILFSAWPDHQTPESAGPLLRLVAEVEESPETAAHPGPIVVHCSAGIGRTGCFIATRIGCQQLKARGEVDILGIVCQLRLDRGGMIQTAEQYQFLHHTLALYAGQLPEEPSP

T1 sequence (P98170 whole entry): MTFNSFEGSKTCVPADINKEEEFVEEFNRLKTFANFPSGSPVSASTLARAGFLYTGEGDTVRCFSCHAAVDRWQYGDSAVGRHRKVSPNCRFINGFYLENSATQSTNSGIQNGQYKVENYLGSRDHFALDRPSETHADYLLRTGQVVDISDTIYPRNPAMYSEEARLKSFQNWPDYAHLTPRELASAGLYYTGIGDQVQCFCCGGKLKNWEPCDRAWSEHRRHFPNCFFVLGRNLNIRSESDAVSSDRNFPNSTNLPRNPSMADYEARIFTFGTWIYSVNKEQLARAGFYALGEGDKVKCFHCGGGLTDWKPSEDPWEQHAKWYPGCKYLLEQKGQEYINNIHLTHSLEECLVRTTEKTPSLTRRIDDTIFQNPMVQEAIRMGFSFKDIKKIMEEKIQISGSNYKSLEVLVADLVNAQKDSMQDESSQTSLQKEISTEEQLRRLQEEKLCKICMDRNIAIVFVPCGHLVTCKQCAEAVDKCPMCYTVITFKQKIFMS

O=C(Nc1ccc(F)cc1)c1ccccc1CC[N+](=O)[O-]
IC50 [1]: > 100 µM (inactive) | IC50 [2]: > 100 µM (not active)

CC1CC(N(C(=O)c2ccco2)c2ccccc2)c2ccccc2N1C(=O)c1ccco1 (configuration not stated)
IC50 [3]: 5.52 µM (active)

O=C1CSC(c2ccccc2Br)N1c1ccc(Cl)cn1 (configuration not stated)
IC50 [3]: 4.58 µM (active)

O=C(Nc1ccc(Cl)cc1)N(Cc1cccnc1)Cc1ccco1
IC50 [1]: > 100 µM (inactive) | IC50 [2]: > 100 µM (not active) | EC50 [4]: > 30 µM (not active) | EC50 [5]: 1.1 µM (active)

COCCCN(C(=S)NC(=O)C12CC3CC(CC(C3)C1)C2)c1c(N)n(Cc2ccccc2)c(=O)[nH]c1=O
AC50 [6]: 2.64 µM (active) | AC50 [7]: 4.29 µM (active) | EC50 (HEK293 [8]): > 59.7 µM (inactive) | AC50 [9]: 1.92 µM (active) | EC50 (HEK293 [10]): > 59.7 µM (inactive) | AC50 [11]: 1.97 µM (active)

CCOC(=O)c1c(CSC(=N)N)n(C)c2cc(Br)c(OC(C)=O)cc12
IC50 [3]: 1.22 µM (active)

O=C(C1=C(O)C(=O)N(CCCn2ccnc2)C1c1cccc(Br)c1)c1ccco1 (configuration not stated)
IC50 [12]: 155 µM (inactive)

O=C(NCCN1C(=O)S/C(=C\c2ccccc2)C1=O)c1cc(S(=O)(=O)N2CCOCC2)c(Cl)cc1Cl
IC50 [13]: 21.3 µM (inactive) | IC50 [14]: 10.5 µM (inactive) | IC50 (CHO-K1): > 66.2 µM (inactive) | IC50 [15]: 20.3 µM (inactive)

NS(=O)(=O)c1ccc(N/C=C\C(=O)c2ccc3ccccc3c2)cc1
IC50 [16]: 28.6 µM (active) | IC50 (Prothrombin): 56.5 µM (active) | IC50 [17]: > 100 µM (inactive)

C=CCn1c(SCC(=O)NCc2ccco2)nnc1-c1ccc2ccccc2n1
IC50 [1]: > 100 µM (inactive) | IC50 [2]: > 100 µM (not active)

Nc1cc(Cl)c2nonc2c1[N+](=O)[O-]
IC50 (CHO): 2.12 µM (active) | IC50 (Beta Lactamase): > 49.7 µM (inactive) | AC50 [18]: 5.37 µM (active) | EC50 (HEK293 [8]): > 59.7 µM (inactive) | AC50 [19]: 29.6 µM (active) | EC50 (HEK293 [10]): > 59.7 µM (inactive) | AC50 [20]: 1.37 µM (active) | CC50 [21]: 12 µM (active)

CN(C)C=O.CN(C)c1ccc(/C=C/c2nc3ccccc3c(=O)n2-c2ccc(C(=O)O)cc2)cc1
IC50 (CHO): > 49.7 µM (inactive) | IC50 (Beta Lactamase): 9 µM (active)

CC(C)Cc1nnc(NC(=O)Cc2cccs2)s1
IC50 [16]: 20.6 µM (active) | IC50 (Prothrombin): 44.7 µM (active) | IC50 [17]: > 100 µM (inactive)

COc1cc2c(cc1OC)-c1cc(NC3CCCC3)nc(=O)n1CC2
IC50 [1]: > 100 µM (inactive) | IC50 [2]: > 100 µM (not active)

S=C1SCN(Cc2ccccn2)CN1Cc1ccco1
AC50 (Cytochrome P450 2D6): 17.8 µM (inconclusive) | CC50 (Vero): 24 µM (active) | AC50 (Cytochrome P450 2C9): 14.1 µM (inconclusive) | AC50 (Cytochrome P450 1A2): 11.2 µM (inconclusive)

C=CCC[C@@H](Cc1ccc(F)cc1)C(=O)OC[C@@H](Cc1c[nH]c2ccccc12)NC(=O)[C@@H](CC=C)CC(=O)N(CCO)Cc1ccccc1
CC50 (Vero): 15.5 µM (active) | AC50 [22]: 5.96 µM (active)

O=C(Nc1ccc(Cl)cc1)Nc1ccc2nc(-c3ccco3)c(-c3ccco3)nc2c1
IC50 [23]: 0.949 µM (active)

CC1(Cc2ccc(C(F)(F)F)nc2)C(=O)Nc2cc(-c3ccccc3Cl)ccc21 (configuration not stated)
EC50 (HEK293 [8]): > 59.6 µM (inactive) | EC50 (HEK293 [10]): > 59.6 µM (inactive)

Cc1cccc(C)c1-n1c(C)cc(/C=N\Nc2ccc([N+](=O)[O-])cn2)c1C
IC50 (CHO): > 49.8 µM (inactive) | IC50 (Beta Lactamase): 4.04 µM (active)

CCCCNc1c(-c2ccc(-c3ccc(OC)cc3)c(OC)c2)nc2ccccn12
CC50 (Vero): > 25 µM (active)
